ChEMBL document CHEMBL1201862, “PubChem BioAssay data set” (2004)
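Tested at 5 concentrations; 48 h exposure; 96-well plates; endpoints linearly interpolated, else capped at highest concentration. The concentration for 50% growth inhibition is given as GI50.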 Calls of active or inactive are those of the source. No stated cut-off is given here; in the data, active = GI50 up to about 1.1 µM and inactive = higher.

What was measured:
Assay in all cases: NCI-60 cell line screen, 48 h
M19-MEL = tested on: M19-MEL
LXFL 529 = tested on: LXFL 529
SNB-78 = tested on: SNB-78
DMS-273 = tested on: DMS-273
DMS-114 = tested on: DMS-114
DLD-1 = tested on: DLD-1
RXF 631 = tested on: RXF 631
KM-20L2 = tested on: KM-20L2
HOP-18 = tested on: HOP-18

Row | SMILES | GI50 (M19-MEL) | GI50 (LXFL 529) | GI50 (SNB-78) | GI50 (DMS-273) | GI50 (DMS-114) | GI50 (DLD-1) | GI50 (RXF 631) | GI50 (KM-20L2) | GI50 (HOP-18)
1 | COc1ccc(C(C2=C(C)C(=O)c3ccccc3C2=O)c2ccc(C(C)C)cc(=O)c2O)cc1 (centres undefined) | 2.22 µM (inactive) | 4.06 µM (inactive) | 5.41 µM (inactive) | 2.23 µM (inactive) | 2.82 µM (inactive) | 4.79 µM (inactive) |  |  | 
2 | O=C(COc1ccc(/C=C/C(=O)c2ccc(Cl)cc2)cc1)Nc1c(Cl)cccc1Cl | > 100 µM (inactive) | 78.7 µM (inactive) | 58.9 µM (inactive) |  | 33.3 µM (inactive) | > 100 µM (inactive) | > 100 µM (inactive) | > 100 µM (inactive) | > 100 µM (inactive)
3 | OC(c1ccccc1)(c1ccccc1)c1ccccn1 | > 100 µM (inactive) | > 100 µM (inactive) | > 100 µM (inactive) | > 100 µM (inactive) | 72.9 µM (inactive) | > 100 µM (inactive) | > 100 µM (inactive) | > 100 µM (inactive) | > 100 µM (inactive)
4 | CC(C)OC(=O)Nc1c([N+](=O)[O-])cc(C(F)(F)F)cc1[N+](=O)[O-] |  | > 100 µM (inactive) | > 50 µM (inactive) | > 100 µM (inactive) |  | > 100 µM (inactive) |  | > 100 µM (inactive) | 21.6 µM (inactive)
5 | N#CC1(C#N)C2C=CC(c3coc4cccc2c34)C1(C#N)C#N (centres undefined) | 3.05 µM (inactive) | 8.87 µM (inactive) | 15.8 µM (inactive) | 16.7 µM (inactive) | 5.11 µM (inactive) | 2.02 µM (inactive) |  | 18.5 µM (inactive) | 16.6 µM (inactive)
6 | O=C1OC(O)c2cc3c(cc21)OCO3 (centres undefined) | > 100 µM (inactive) | > 100 µM (inactive) | > 100 µM (inactive) | > 100 µM (inactive) | > 100 µM (inactive) | > 100 µM (inactive) |  |  | 
7 | COc1cc(CC(=O)c2cc3c(cc2-c2ccccc2)OCO3)cc(OC)c1OC |  | 9.38 µM (inactive) | 25.8 µM (inactive) | 40.2 µM (inactive) | 16.6 µM (inactive) | 81.1 µM (inactive) |  | 96.6 µM (inactive) | 16 µM (inactive)
8 | Cc1nc(-n2nc(-c3ccccc3)cc2-c2ccccc2)sc1C(/C=C/c1ccc([N+](=O)[O-])cc1)=N/NC(N)=S | 42 µM (inactive) | 24.1 µM (inactive) | 18.7 µM (inactive) |  | 16.9 µM (inactive) | 43 µM (inactive) |  | 40.5 µM (inactive) | 
9 | CC1=C(C)C(=O)c2c(cc3c4ccccc4ccn23)C1=O | > 100 µM (inactive) |  |  | > 100 µM (inactive) | > 100 µM (inactive) | > 100 µM (inactive) |  | > 100 µM (inactive) | > 100 µM (inactive)
10 | CCCCCCCCCCCCCCCC(=O)OCC1OC(N2C(=O)/C(=N\NC(N)=S)c3ccc([N+](=O)[O-])cc32)C(OC(C)=O)C1OC(C)=O (centres undefined) | > 100 µM (inactive) | 38.7 µM (inactive) | > 100 µM (inactive) | > 100 µM (inactive) | 66.7 µM (inactive) | 77.1 µM (inactive) | > 100 µM (inactive) | 57.3 µM (inactive) | > 100 µM (inactive)
11 | CC(C)CC1CC2C(=O)N(c3ccccc3)C(=O)C2c2[nH]c3ccccc3c21 (centres undefined) | 34.2 µM (inactive) | 60 µM (inactive) | > 74.3 µM (inactive) | 26.9 µM (inactive) | 15.9 µM (inactive) | 29 µM (inactive) | 15.2 µM (inactive) | > 100 µM (inactive) | 11.4 µM (inactive)
12 | CC1(C)C(=O)C(O)=CC2C1=CCC1C2(C)C(=O)CC2(C)C(C(C)(O)C(=O)CC(O)C(C)(C)O)C(O)CC12C (centres undefined) | 8.85 µM (inactive) | 3.64 µM (inactive) | 3.78 µM (inactive) | 2.85 µM (inactive) | 6.67 µM (inactive) | 3.19 µM (inactive) |  | 3.33 µM (inactive) | 2.51 µM (inactive)
13 | C=C(CN(CC(=C)C(=O)c1ccccc1)C(C)(C)C)C(=O)c1ccccc1 | 15.7 µM (inactive) | 3.84 µM (inactive) | 25.5 µM (inactive) | 16.7 µM (inactive) | 16.9 µM (inactive) | 2.9 µM (inactive) |  | 18.7 µM (inactive) | 5.42 µM (inactive)
14 | Cc1cc2c(=O)cc(-c3ccc(O)cc3)oc2c(C(=O)O)c1C | > 100 µM (inactive) | > 100 µM (inactive) | > 100 µM (inactive) | > 100 µM (inactive) | > 100 µM (inactive) | > 100 µM (inactive) |  | > 100 µM (inactive) | > 100 µM (inactive)
15 | CCN(CC)c1ccc(Cl)c2c1C(O)(C(C)C)C2(C)C (centres undefined) | 14.7 µM (inactive) | 17 µM (inactive) | 28.2 µM (inactive) | 15.8 µM (inactive) | 21.2 µM (inactive) | 17.4 µM (inactive) |  | 14 µM (inactive) | 14 µM (inactive)
16 | Nc1nc2c3nc(Nc4ccccc4)sc3nc(=S)n2c2sc(Nc3ccccc3)nc12 | 13.4 µM (inactive) | 4.18 µM (inactive) | 22.5 µM (inactive) | > 100 µM (inactive) | 20.3 µM (inactive) | > 100 µM (inactive) |  | > 100 µM (inactive) | 36.1 µM (inactive)
17 | CCOC(=O)C/N=c1\nc(SC)sc2c(C(=O)OCC)nc(Sc3ccccc3)n12 | 34 µM (inactive) | 14.8 µM (inactive) |  |  | 62.7 µM (inactive) | 34.2 µM (inactive) | 25.3 µM (inactive) | > 100 µM (inactive) | > 100 µM (inactive)
18 | Cc1c(C(=O)/C=C/C=C/c2ccccc2)[n+]([O-])c2ccccc2[n+]1[O-] | 34.3 µM (inactive) | 18 µM (inactive) | 42 µM (inactive) | 32.2 µM (inactive) | 25.6 µM (inactive) | 14.5 µM (inactive) |  | 38 µM (inactive) | 45.2 µM (inactive)
19 | COc1cc(OC)c2c(=O)c3cccc([N+](=O)[O-])c3n(C)c2c1 |  | > 100 µM (inactive) | > 100 µM (inactive) | 60.3 µM (inactive) | 69.2 µM (inactive) |  | 34.5 µM (inactive) | > 100 µM (inactive) | < 0.01 µM (active)
20 | COc1cccc2c1C(=O)c1c(O)c3c(c(O)c1C2=O)C[C@@](O)(C(C)=O)C[C@@H]3OC1OC(C)C(O)C(N)C1Br (some centres undefined) | 0.116 µM (active) | 0.0601 µM (active) | 0.105 µM (active) | 0.0078 µM (active) | 0.0316 µM (active) | 0.0259 µM (active) |  | 0.232 µM (active) | 0.0404 µM (active)
21 | Cc1ccc(-c2cc(-c3ccco3)nc(N)n2)o1 |  | > 100 µM (inactive) | > 100 µM (inactive) | > 100 µM (inactive) |  |  |  | > 100 µM (inactive) | 
22 | [O-][S+](Cc1ccccc1)c1nc2ccccc2nc1-c1cccs1 (centres undefined) | 5.77 µM (inactive) | 3.22 µM (inactive) | 22 µM (inactive) | 9.59 µM (inactive) | 2.5 µM (inactive) | 11 µM (inactive) |  |  | 15.9 µM (inactive)
23 | CCCCC(C(=O)C(=O)Nc1ccccc1CC)C(=O)C(C)C (centres undefined) | > 100 µM (inactive) | > 100 µM (inactive) | > 100 µM (inactive) | > 100 µM (inactive) | > 100 µM (inactive) | > 100 µM (inactive) | > 100 µM (inactive) | > 100 µM (inactive) | 
